Experimental data: patent US12692262B2, “Substituted ureas as orexin receptor agonists” (Merck Sharp & Dohme LLC, priority 2020, dated 2026)

Biological target: T1, human OX2R (Homo sapiens, UniProt O43614)
T1 construct: expressed in transfected cells; host or cells: CHO (Chinese hamster ovary) cells grown under G418 selection
T1 sequence (O43614 1-444): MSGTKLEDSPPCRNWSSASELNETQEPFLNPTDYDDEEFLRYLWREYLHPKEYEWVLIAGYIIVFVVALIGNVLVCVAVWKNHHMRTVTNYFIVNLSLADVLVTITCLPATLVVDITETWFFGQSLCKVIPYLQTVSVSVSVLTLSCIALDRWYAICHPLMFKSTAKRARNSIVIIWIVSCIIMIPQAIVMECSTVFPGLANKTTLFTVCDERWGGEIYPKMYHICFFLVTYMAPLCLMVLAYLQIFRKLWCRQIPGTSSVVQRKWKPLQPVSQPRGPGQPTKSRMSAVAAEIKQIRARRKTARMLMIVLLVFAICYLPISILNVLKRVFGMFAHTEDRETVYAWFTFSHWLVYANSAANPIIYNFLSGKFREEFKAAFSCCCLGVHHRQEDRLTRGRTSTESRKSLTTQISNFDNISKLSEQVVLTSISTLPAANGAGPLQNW
Experiment: IPOne (IP-1 accumulation) assay in CHO cells expressing human OX2R
Assay type: cell-based
Conditions: for EC50: CHO cells expressing human OX2R, IP-One assay, 2 h incubation, four parameter logistic fit, read-out: OX2R Potency, EC50; for % of maximum agonist effect (relative to Orexin A): percent effect vs mean max effect of a reference compound at 1 uM (100% activity vs Orexin A), human OX2R
Outline: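 Agonist EC50 values come from the inflection point of four-parameter logistic curves. Read-out is IP-1 accumulation detected with lysis buffer plus D2 and AB-cryptate reagents (HTRF), in CHO cells engineered to express human OX2R.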

SMILES | EC50 | % of maximum agonist effect (relative to Orexin A)
CCN(C(=O)N[C@@H](CCC(F)(F)F)C(F)(F)F)[C@@H](c1cc(-c2nc(OC)c3nccn3c2C)c(OC)cn1)C(F)(F)F [Example 9-3, 1-ethyl-3-((S)-1,1,1,5,5,5-hexafluoropentan-2-yl)-1-((S)-2,2,2-trifluoro-1-(5-methoxy-4-(8-methoxy-5-methylimidazo[1,2-a]pyrazin-6-yl)pyridin-2-yl)ethyl)urea] | 6.2 nM | 100.7%
CCN(C(=O)N[C@@H](CCC(F)(F)F)C(F)(F)F)[C@H](C)c1cc(-c2cc(OC)c3ncoc3c2)c(OC)cn1 [Example 9-4, 1-ethyl-3-((S)-1,1,1,5,5,5-hexafluoropentan-2-yl)-1-((R)-1-(5-methoxy-4-(4-methoxybenzo[d]oxazol-6-yl)pyridin-2-yl)ethyl)urea] | 7.5 nM | 99.6%
CCc1cc(-c2cc([C@@H](C)N(CC)C(=O)N[C@@H](CCC(F)(F)F)C(F)(F)F)ncc2OC)cc2ccnn12 [Example 9-5, 1-ethyl-1-((R)-1-(4-(7-ethylpyrazolo[1,5-a]pyridin-5-yl)-5-methoxypyridin-2-yl)ethyl)-3-((S)-1,1,1,5,5,5-hexafluoropentan-2-yl)urea] | 16.3 nM | 99.6%
CCN(C(=O)N[C@@H](CCC(F)(F)F)C(F)(F)F)[C@H](C)c1cc(-c2cn3ccnc3c(OC)n2)c(OC)nn1 [Example 10-3, 1-ethyl-3-((S)-1,1,1,5,5,5-hexafluoropentan-2-yl)-1-((R)-1-(6-methoxy-5-(8-methoxyimidazo[1,2-a]pyrazin-6-yl)pyridazin-3-yl)ethyl)urea] | 0.8 nM | 101.7%

Continued by falling EC50, values first:

EC50 | % of maximum agonist effect (relative to Orexin A) | SMILES
608 nM | 97.1% | CCN(C(=O)N[C@@H](CCC(F)(F)F)C(F)(F)F)[C@@H](c1cc(-c2cc(F)c3ncnn3c2)c(OC)cn1)C(F)(F)F [Example 9-10, 1-ethyl-3-((S)-1,1,1,5,5,5-hexafluoropentan-2-yl)-1-((S)-2,2,2-trifluoro-1-(4-(8-fluoro-[1,2,4]triazolo[1,5-a]pyridin-6-yl)-5-methoxypyridin-2-yl)ethyl)urea]
44 nM | 99.5% | CCN(C(=O)N[C@@H](CCC(F)(F)F)C(F)(F)F)[C@@H](c1cc(-c2cc(OC)n3nccc3n2)c(OC)cn1)C(F)(F)F [Example 9-8, 1-ethyl-3-((S)-1,1,1,5,5,5-hexafluoropentan-2-yl)-1-((S)-2,2,2-trifluoro-1-(5-methoxy-4-(7-methoxypyrazolo[1,5-a]pyrimidin-5-yl)pyridin-2-yl)ethyl)urea]
29.8 nM | 100.4% | CCN(C(=O)N[C@@H](CCC(F)(F)F)C(F)(F)F)[C@@H](c1cc(-c2cc(OC)c3ncn(C)c3c2)c(OC)cn1)C(F)(F)F [Example 9-7, 1-ethyl-3-((S)-1,1,1,5,5,5-hexafluoropentan-2-yl)-1-((S)-2,2,2-trifluoro-1-(5-methoxy-4-(4-methoxy-1-methyl-1H-benzo[d]imidazol-6-yl)pyridin-2-yl)ethyl)urea]
2.6 nM | 99.5% | CCN(C(=O)N[C@@H](CCC(F)(F)F)C(F)(F)F)[C@@H](c1cc(-c2nc(OC)c3nccn3n2)c(OC)cn1)C(F)(F)F [Example 9-11, 1-ethyl-3-((S)-1,1,1,5,5,5-hexafluoropentan-2-yl)-1-((S)-2,2,2-trifluoro-1-(5-methoxy-4-(4-methoxyimidazo[2,1-f][1,2,4]triazin-2-yl)pyridin-2-yl)ethyl)urea]
1.1 nM | 100.4% | CCN(C(=O)N[C@@H](CCC(F)(F)F)C(F)(F)F)[C@@H](c1cc(-c2cn3ccnc3c(OC)n2)c(OC)cn1)C(F)(F)F [Example 10-1, 1-ethyl-3-((S)-1,1,1,5,5,5-hexafluoropentan-2-yl)-1-((S)-2,2,2-trifluoro-1-(5-methoxy-4-(8-methoxyimidazo[1,2-a]pyrazin-6-yl)pyridin-2-yl)ethyl)urea]
